Results reported in patent US5552520A, “Therapeutic peptide derivatives” (Biomeasure, Inc., priority 1994, dated 1996).
Numbered stars: 1 amine (or outer) side, 2 acyl side, 3 side chain; on linkers, the order of the positions; unused ones are H or OH. Bridge positions count the residues as written; N and C are the ends. Square brackets hold non-standard residues; d marks the D form. Peptide text beside a SMILES is read from it. * marks the point of attachment. X1 = O=C1O[C@H]([C@@H](O)CO)C(OCC(=O)*)=C1OCC(O)CO; 2Nal = N[C@@H](Cc1ccc2ccccc2c1)C(=O)O; Suc = O=C(CCC(=O)[*:2])[*:1]; NHC(CH2OH)3 = OCC(CO)(CO)N*

Tests used:
[1] = system: AR42J rat pancreas tumor cells; assay: Antiproliferative assay on AR42J cells; format: cell-based; settings: growth curves, concentration dependence
[2] = system: AR42J rat pancreas tumor cells; assay: Antiproliferative assay on AR42J cells; format: cell-based; settings: Concentration 100 nM, AR42J Rat Pancreas Tumor Cells after 8 days
Experimental: The purified somatostatin analogs described above were also tested for activity against rapidly proliferating cells.
^1 Concentration 100 nM, AR42J Rat Pancreas Tumor Cells after 8 days.

[3] = system: stimulated growth hormone release; assay: Growth Hormone (GH) Inhibition Assay in rats (D-Ala2-GRF stimulated GH); format: in vivo, male Sprague Dawley rats; settings: s.c., 25 μg/kg
Experimental: Groups of five male Sprague Dawley rats (each having a weight between 250-300 g) were injected s.c. with a somatostatin derivative or saline. Thirty minutes prior to the selected post-drug time periods shown in table II (2 hours, 4 hours, 6 hours, 8 hours), rats were anesthetized with Nembutal i.p. (50 mg/kg). Fifteen minutes following anesthesia, an aliquot of blood was withdrawn by cardiac puncture over heparin to measure basal GH. Additionally, a s.c. injection of D-Ala^2 -GRF (10 μg/kg) was given. Fifteen minutes later, blood was withdrawn to quantitate the stimulated GH, which was measured in plasma using a radioimmunoassay supplied by NIADDKD. The percentage of GH inhibition was calculated from differences obtained between basal and stimulated GH values.
The efficacy of D-Phe-c[Cys-Tyr-D-Trp-Lys-Thr-Cys]-Nal-NH2 (SEQ ID NO. 113) (BIM-23060) in inhibiting growth hormone in rats is compared with other somatostatin derivatives (BIM-23167, BIM-23179, and BIM-23181) of the invention.
Additional experiments were conducted on D-Phe-c[Cys-Tyr-D-Trp-Lys-Abu-Cys]-Thr-NH2, (SEQ ID NO. 112) a somatostatin analog, and BIM-23190, BIM-23195 and BIM-23197, to determine the ED50 (i.e., the concentration of each compound required to inhibit fifty percent of growth hormone release after a specified time) of the respective compound. Experiments were conducted at a dose range of between 25 μg/kg and 0.25 μg/kg.

[4] = biological target: T1, somatostatin receptor (Rattus norvegicus, UniProt P30680); assay: Somatostatin binding assay: in vitro inhibition of binding of [125I-Tyr11]SRIF-14 to rat AR42J pancreas membranes; settings: inhibition of [125I-Tyr11]SRIF-14 binding, read-out: IC50, in vitro binding affinity
T1 construct: SRIF-14 to rat AR42J pancreas membranes; endogenous in cells; host or cells: rat AR42J pancreatic cells (membrane preparation)
T1 sequence (P30680 whole entry): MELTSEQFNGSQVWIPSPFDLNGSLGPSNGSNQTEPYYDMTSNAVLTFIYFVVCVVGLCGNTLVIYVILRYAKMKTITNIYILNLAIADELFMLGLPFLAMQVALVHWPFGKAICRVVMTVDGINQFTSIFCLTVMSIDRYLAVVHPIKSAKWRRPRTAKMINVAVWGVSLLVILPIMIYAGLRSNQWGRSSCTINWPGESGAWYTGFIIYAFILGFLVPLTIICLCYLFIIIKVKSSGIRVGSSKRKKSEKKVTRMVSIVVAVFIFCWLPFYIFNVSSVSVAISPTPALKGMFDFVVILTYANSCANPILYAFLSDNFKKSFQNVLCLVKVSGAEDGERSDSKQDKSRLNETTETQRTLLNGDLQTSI

CC(C)[C@@H]1NC(=O)[C@H](CCCCN)NC(=O)[C@@H](Cc2c[nH]c3ccccc23)NC(=O)[C@H](Cc2ccc(O)cc2)NC(=O)[C@@H](NC(=O)[C@@H](Cc2ccc3ccccc3c2)NC(=O)CCCOC2=C(O)C(=O)O[C@@H]2[C@@H](O)CO)CSSC[C@@H](C(=O)N[C@H](C(N)=O)[C@@H](C)O)NC1=O [BIM-23118]
Inhibition of growth of AR42J cells (FIG. 1), in words [1]: the more effective of the two compounds | Cell growth (percent of control) [2]: 61.0% of control

C[C@@H](O)[C@@H]1NC(=O)[C@H](CCCCN)NC(=O)[C@@H](Cc2c[nH]c3ccccc23)NC(=O)[C@H](Cc2ccc(O)cc2)NC(=O)[C@@H](NC(=O)[C@@H](Cc2ccccc2)NC(=O)CCC(=O)NC(CO)(CO)CO)CSSC[C@@H](C(=O)N[C@@H](Cc2ccc3ccccc3c2)C(N)=O)NC1=O [BIM-23167, (HO-CH2)3 -C-NH-CO-(CH2)2 -CO-D-Phe-c[Cys-Tyr-D-Trp-Lys-Thr-Cys]-Nal-NH2] ({NHC(CH2OH)3-Suc}-[dF]CY[dW]KTC[2Nal]-NH2; disulfide 2-7)
Inhibition of stimulated growth hormone release (percentile control) ([3]; 2 Hours): 92.67 percentile control | Inhibition of stimulated growth hormone release (percentile control) ([3]; 4 Hours): 79.54 percentile control | Inhibition of stimulated growth hormone release (percentile control) ([3]; 6 Hours): 59.72 percentile control | Inhibition of stimulated growth hormone release (percentile control) ([3]; 8 Hours): 50.14 percentile control | IC50 [4]: 0.09 nM | Cell growth (percent of control) [2]: 60.2% of control

C[C@@H](O)[C@@H]1NC(=O)[C@H](CCCCN)NC(=O)[C@@H](Cc2c[nH]c3ccccc23)NC(=O)[C@H](Cc2ccc(O)cc2)NC(=O)[C@@H](NC(=O)[C@@H](Cc2ccccc2)NC(=O)COC2=C(OCC(O)CO)C(=O)O[C@@H]2[C@@H](O)CO)CSSC[C@@H](C(=O)N[C@@H](Cc2ccc3ccccc3c2)C(N)=O)NC1=O (some centres unmarked) [BIM-23181] (X1-[dF]CY[dW]KTC[2Nal]-NH2; disulfide 2-7)
Inhibition of stimulated growth hormone release (percentile control) ([3]; 2 Hours): 99.24 percentile control | Inhibition of stimulated growth hormone release (percentile control) ([3]; 4 Hours): 77.07 percentile control | Inhibition of stimulated growth hormone release (percentile control) ([3]; 6 Hours): 60.56 percentile control | Inhibition of stimulated growth hormone release (percentile control) ([3]; 8 Hours): 56.12 percentile control | Cell growth (percent of control) [2]: 69.1% of control

C[C@H](N)C(=O)NCC(=O)N[C@H]1CSSC[C@@H](C(=O)O)NC(=O)[C@H](CO)NC(=O)[C@H]([C@@H](C)O)NC(=O)[C@H](Cc2ccccc2)NC(=O)[C@H]([C@@H](C)O)NC(=O)[C@H](CCCCN)NC(=O)[C@H](Cc2c[nH]c3ccccc23)NC(=O)[C@H](Cc2ccccc2)NC(=O)[C@H](Cc2ccccc2)NC(=O)[C@H](CC(N)=O)NC(=O)[C@H](CCCCN)NC1=O [SRIF-14, reference compound]
Cell growth (percent of control) [2]: 91.3% of control

CSCC[C@H](NC(=O)[C@H](C)NC(=O)[C@@H]1CCCN1C(=O)[C@H](CC(N)=O)NC(=O)[C@H](CO)NC(=O)[C@H](CC(N)=O)NC(=O)[C@H](C)NC(=O)[C@@H](N)CO)C(=O)N[C@@H](C)C(=O)N1CCC[C@H]1C(=O)N[C@@H](CCCNC(=N)N)C(=O)N[C@@H](CCC(=O)O)C(=O)N[C@@H](CCCNC(=N)N)C(=O)N[C@@H](CCCCN)C(=O)N[C@@H](C)C(=O)NCC(=O)N[C@H]1CSSC[C@@H](C(=O)O)NC(=O)[C@H](CO)NC(=O)[C@H]([C@@H](C)O)NC(=O)[C@H](Cc2ccccc2)NC(=O)[C@H]([C@@H](C)O)NC(=O)[C@H](CCCCN)NC(=O)[C@H](Cc2c[nH]c3ccccc23)NC(=O)[C@H](Cc2ccccc2)NC(=O)[C@H](Cc2ccccc2)NC(=O)[C@H](CC(N)=O)NC(=O)[C@H](CCCCN)NC1=O [SRIF-28, reference compound]
Cell growth (percent of control) [2]: 98.0% of control

D-Nal-c[Cys-Tyr-D-Trp-Lys-Val-Cys]-Thr-NH2 [BIM-23014C, reference compound]
Inhibition of growth of AR42J cells (FIG. 1), in words [1]: inhibit the growth of AR42J rat pancreas tumor cells in a concentration-dependent fashion | Cell growth (percent of control) [2]: 74.1% of control
